Results from PubChem BioAssay (NCI).
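Interpolation was linear, between the two tested concentrations surrounding the appropriate level; five concentrations were tested over 48 hours in 96-well plates. At the GI50, growth is halved. At the TGI there is no net growth.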

System: HCC-2998 colon
Test: NCI-60 cell line screen, 48 h

SMILES | GI50 [µM] | TGI [µM]
CCNCCNc1cc(-c2ccc(C(F)(F)F)cc2)c(C#N)c2nc3ccccc3n12 | 1.8 | 3.4
CCOC(=O)C1CCN(S(=O)(=O)/N=C2/NC(=O)NC2=C(Cl)Cl)CC1 | 2.05 | 3.67

System: MOLT-4 leukemia
Test: NCI-60 cell line screen, 48 h

SMILES | TGI [µM] | GI50 [µM]
O=C(Nc1nnc(-c2ccc(Cl)cc2)o1)C(SC(=S)N1CCOCC1)c1ccccc1 (configuration not stated) | > 100 | 
CC(C)c1ccc(-c2cc(-c3cn[nH]c3-c3ccccn3)ccn2)cc1 | > 24.1 | 8.06
CCNCCNc1cc(-c2ccc(C(F)(F)F)cc2)c(C#N)c2nc3ccccc3n12 | 3.29 | 1.31
CCOC(=O)C1CCN(S(=O)(=O)/N=C2/NC(=O)NC2=C(Cl)Cl)CC1 | 4.46 | 1.88

System: OVCAR-4 ovarian
Test: NCI-60 cell line screen, 48 h

SMILES | TGI [µM] | GI50 [µM]
O=C(Nc1nnc(-c2ccc(Cl)cc2)o1)C(SC(=S)N1CCOCC1)c1ccccc1 (configuration not stated) | > 100 | 
CC(C)c1ccc(-c2cc(-c3cn[nH]c3-c3ccccn3)ccn2)cc1 | > 25 | 10.4
CCNCCNc1cc(-c2ccc(C(F)(F)F)cc2)c(C#N)c2nc3ccccc3n12 | 1.78 | 0.469

System: HOP-92 NSCLC
Test: NCI-60 cell line screen, 48 h

SMILES | GI50 [µM] | TGI [µM]
CC(C)c1ccc(-c2cc(-c3cn[nH]c3-c3ccccn3)ccn2)cc1 | 1.99 | > 25
CCNCCNc1cc(-c2ccc(C(F)(F)F)cc2)c(C#N)c2nc3ccccc3n12 | 1.55 | 2.98
CCOC(=O)C1CCN(S(=O)(=O)/N=C2/NC(=O)NC2=C(Cl)Cl)CC1 | 1.62 | 3.29

System: MCF7 breast
Test: NCI-60 cell line screen, 48 h

SMILES | TGI [µM] | GI50 [µM]
O=C(Nc1nnc(-c2ccc(Cl)cc2)o1)C(SC(=S)N1CCOCC1)c1ccccc1 (configuration not stated) | > 100 | 
CC(C)c1ccc(-c2cc(-c3cn[nH]c3-c3ccccn3)ccn2)cc1 | > 25 | > 18.9
CCNCCNc1cc(-c2ccc(C(F)(F)F)cc2)c(C#N)c2nc3ccccc3n12 | 2.18 | 0.642
CCOC(=O)C1CCN(S(=O)(=O)/N=C2/NC(=O)NC2=C(Cl)Cl)CC1 | 22 | 0.33

System: MDA-MB-231 breast
Test: NCI-60 cell line screen, 48 h

SMILES | TGI [µM] | GI50 [µM]
O=C(Nc1nnc(-c2ccc(Cl)cc2)o1)C(SC(=S)N1CCOCC1)c1ccccc1 (configuration not stated) | > 100 | 
CC(C)c1ccc(-c2cc(-c3cn[nH]c3-c3ccccn3)ccn2)cc1 | > 25 | > 16.5
CCNCCNc1cc(-c2ccc(C(F)(F)F)cc2)c(C#N)c2nc3ccccc3n12 | 2.52 | 1.16
CCOC(=O)C1CCN(S(=O)(=O)/N=C2/NC(=O)NC2=C(Cl)Cl)CC1 | 3.54 | 1.94

System: K-562 leukemia
Test: NCI-60 cell line screen, 48 h

SMILES | TGI [µM] | GI50 [µM]
O=C(Nc1nnc(-c2ccc(Cl)cc2)o1)C(SC(=S)N1CCOCC1)c1ccccc1 (configuration not stated) | > 100 | 
CC(C)c1ccc(-c2cc(-c3cn[nH]c3-c3ccccn3)ccn2)cc1 | > 25 | 9.03
CCOC(=O)C1CCN(S(=O)(=O)/N=C2/NC(=O)NC2=C(Cl)Cl)CC1 | 5.99 | 1.82

System: SR leukemia
Test: NCI-60 cell line screen, 48 h

SMILES | TGI [µM] | GI50 [µM]
O=C(Nc1nnc(-c2ccc(Cl)cc2)o1)C(SC(=S)N1CCOCC1)c1ccccc1 (configuration not stated) | > 100 | 
CCNCCNc1cc(-c2ccc(C(F)(F)F)cc2)c(C#N)c2nc3ccccc3n12 | 1.19 | 0.343
CCOC(=O)C1CCN(S(=O)(=O)/N=C2/NC(=O)NC2=C(Cl)Cl)CC1 | 4.96 | 0.731

System: DU-145 prostate
Test: NCI-60 cell line screen, 48 h

SMILES | TGI [µM] | GI50 [µM]
O=C(Nc1nnc(-c2ccc(Cl)cc2)o1)C(SC(=S)N1CCOCC1)c1ccccc1 (configuration not stated) | > 100 | 
CC(C)c1ccc(-c2cc(-c3cn[nH]c3-c3ccccn3)ccn2)cc1 | > 25 | 16
CCNCCNc1cc(-c2ccc(C(F)(F)F)cc2)c(C#N)c2nc3ccccc3n12 | 2.78 | 1.44
CCOC(=O)C1CCN(S(=O)(=O)/N=C2/NC(=O)NC2=C(Cl)Cl)CC1 | 15.1 | 2.37

System: TK-10 renal
Test: NCI-60 cell line screen, 48 h

SMILES | TGI [µM] | GI50 [µM]
O=C(Nc1nnc(-c2ccc(Cl)cc2)o1)C(SC(=S)N1CCOCC1)c1ccccc1 (configuration not stated) | > 100 | 
CC(C)c1ccc(-c2cc(-c3cn[nH]c3-c3ccccn3)ccn2)cc1 | > 25 | > 18.6
CCNCCNc1cc(-c2ccc(C(F)(F)F)cc2)c(C#N)c2nc3ccccc3n12 | 3.76 | 2.14
CCOC(=O)C1CCN(S(=O)(=O)/N=C2/NC(=O)NC2=C(Cl)Cl)CC1 | > 100 | 1.25

System: MALME-3M melanoma
Test: NCI-60 cell line screen, 48 h

SMILES | TGI [µM] | GI50 [µM]
O=C(Nc1nnc(-c2ccc(Cl)cc2)o1)C(SC(=S)N1CCOCC1)c1ccccc1 (configuration not stated) | > 100 | 
CC(C)c1ccc(-c2cc(-c3cn[nH]c3-c3ccccn3)ccn2)cc1 | > 25 | 8.83
CCNCCNc1cc(-c2ccc(C(F)(F)F)cc2)c(C#N)c2nc3ccccc3n12 | 3.34 | 1.74
CCOC(=O)C1CCN(S(=O)(=O)/N=C2/NC(=O)NC2=C(Cl)Cl)CC1 | 3.48 | 1.7

System: U251 CNS
Test: NCI-60 cell line screen, 48 h

SMILES | TGI [µM] | GI50 [µM]
O=C(Nc1nnc(-c2ccc(Cl)cc2)o1)C(SC(=S)N1CCOCC1)c1ccccc1 (configuration not stated) | 77.2 | 
CC(C)c1ccc(-c2cc(-c3cn[nH]c3-c3ccccn3)ccn2)cc1 | > 25 | 11.8
CCNCCNc1cc(-c2ccc(C(F)(F)F)cc2)c(C#N)c2nc3ccccc3n12 | 1.61 | 0.466
CCOC(=O)C1CCN(S(=O)(=O)/N=C2/NC(=O)NC2=C(Cl)Cl)CC1 | 3.47 | 1.9

System: M14 melanoma
Test: NCI-60 cell line screen, 48 h

SMILES | TGI [µM] | GI50 [µM]
O=C(Nc1nnc(-c2ccc(Cl)cc2)o1)C(SC(=S)N1CCOCC1)c1ccccc1 (configuration not stated) | > 100 | 
CC(C)c1ccc(-c2cc(-c3cn[nH]c3-c3ccccn3)ccn2)cc1 | > 25 | 14.4
CCNCCNc1cc(-c2ccc(C(F)(F)F)cc2)c(C#N)c2nc3ccccc3n12 | 3.16 | 1.66
CCOC(=O)C1CCN(S(=O)(=O)/N=C2/NC(=O)NC2=C(Cl)Cl)CC1 | 3.6 | 1.82

System: SF-268 CNS
Test: NCI-60 cell line screen, 48 h

SMILES | GI50 [µM] | TGI [µM]
CC(C)c1ccc(-c2cc(-c3cn[nH]c3-c3ccccn3)ccn2)cc1 | 14.9 | > 25
CCNCCNc1cc(-c2ccc(C(F)(F)F)cc2)c(C#N)c2nc3ccccc3n12 | 1.48 | 3.04
CCOC(=O)C1CCN(S(=O)(=O)/N=C2/NC(=O)NC2=C(Cl)Cl)CC1 | 1.93 | 7.43

System: HS 578T breast
Test: NCI-60 cell line screen, 48 h

SMILES | TGI [µM] | GI50 [µM]
O=C(Nc1nnc(-c2ccc(Cl)cc2)o1)C(SC(=S)N1CCOCC1)c1ccccc1 (configuration not stated) | > 100 | 
CC(C)c1ccc(-c2cc(-c3cn[nH]c3-c3ccccn3)ccn2)cc1 | > 25 | > 16.2
CCNCCNc1cc(-c2ccc(C(F)(F)F)cc2)c(C#N)c2nc3ccccc3n12 | 4.39 | 1.96
CCOC(=O)C1CCN(S(=O)(=O)/N=C2/NC(=O)NC2=C(Cl)Cl)CC1 | 65.3 | 9.14

System: NCI/ADR-RES ovarian
Test: NCI-60 cell line screen, 48 h

SMILES | TGI [µM] | GI50 [µM]
O=C(Nc1nnc(-c2ccc(Cl)cc2)o1)C(SC(=S)N1CCOCC1)c1ccccc1 (configuration not stated) | 90.7 | 
CC(C)c1ccc(-c2cc(-c3cn[nH]c3-c3ccccn3)ccn2)cc1 | > 25 | 7.98
